Results reported in patent publication US9353082B2, “Pharmaceutical compounds” (BIAL—PORTELA & CA, S.A., priority 2008, dated 2016).

Assays:
[1] = target: T1, FAAH (Mus musculus, UniProt O08914); experiment: In vivo FAAH inhibition after oral dosing, remaining activity in brain homogenate (BRh, central nervous tissue); design: species or system NMRI mice; conditions: brain homogenate, low value = strong inhibitor; for In Vivo BRh 3 mg · kg · 8 h (remaining FAAH activity): 3 mg/kg oral; for In Vivo BRh 3 mg·kg 8 h (remaining FAAH activity, % of control): 8 h after dosing
T1 construct: A fragment of liver, left lung lobe and brain without cerebellum were removed; from tissue; host or cells: male NMRI mice; brain (without cerebellum) and liver homogenates
T1 sequence (O08914 1-579): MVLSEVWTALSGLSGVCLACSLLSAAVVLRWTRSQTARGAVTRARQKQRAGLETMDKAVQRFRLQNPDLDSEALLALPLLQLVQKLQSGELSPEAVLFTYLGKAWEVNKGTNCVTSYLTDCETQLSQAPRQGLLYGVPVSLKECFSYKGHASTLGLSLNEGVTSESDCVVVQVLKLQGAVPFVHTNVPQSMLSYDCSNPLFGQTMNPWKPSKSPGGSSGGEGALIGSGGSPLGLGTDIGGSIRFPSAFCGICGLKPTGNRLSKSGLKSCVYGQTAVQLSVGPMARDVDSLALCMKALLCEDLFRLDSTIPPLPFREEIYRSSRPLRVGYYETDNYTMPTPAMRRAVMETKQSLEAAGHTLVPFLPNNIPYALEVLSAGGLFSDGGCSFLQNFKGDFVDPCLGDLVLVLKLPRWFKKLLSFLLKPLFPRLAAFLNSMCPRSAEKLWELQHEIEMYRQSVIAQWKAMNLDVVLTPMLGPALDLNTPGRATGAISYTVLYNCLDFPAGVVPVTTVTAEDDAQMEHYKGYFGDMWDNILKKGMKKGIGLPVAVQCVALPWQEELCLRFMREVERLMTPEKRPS
Method: (§1) The in vivo test was performed according to the protocol described below. BRh indicates inhibition in central nervous tissue and LVh indicates inhibition in peripheral tissue, in this case liver.
(§2) The animals used for experiments were male NMRI mice (weighing 27-44 g) obtained from Interfauna Ibérica (Spain). Mice were kept 5 per cage, under controlled environmental conditions (12 hr light/dark cycle and room temperature 22±1° C.). Food and tap water were allowed ad libitum and the experiments were all carried out during daylight hours.
(§3) Animals were administered 30 mg/kg or 3 mg/kg compounds of the invention via oral route (8 ml/kg; compound suspended in 0.5% carboxymethylcellulose (CMC) or solubilized in water) or vehicle (controls) using animal feeding stainless steel curve needles (Perfectum, U.S.A.). Fifteen minutes before sacrifice animal were anesthetized with pentobarbital 60 mg/kg administered intraperitoneally. A fragment of liver, left lung lobe and brain without cerebellum were removed and put in plastic vials containing membrane buffer (3 mM MgCl2, 1 mM EDTA, 50 mM Tris HCl pH 7.4). Tissues were stored at −30° C. until analysis.
(§4) Animals were always fasted overnight before administration of compounds except for time points of >18 h, where food was removed on the morning of day of administration and the compound was administered in the afternoon of the same day. Animals were then given water but nothing else.
(§5) Tissues were thawed on ice and were homogenized in 10 volumes of membrane buffer (3 mM MgCl2, 1 mM EDTA, 50 mM Tris HCl pH 7.4) with either Potter-Elvejhem (brains—8 strokes at 500 rpm) or Heidolph Diax (livers—2 strokes at position 5 for 20 sec with 30 sec pauses).
(§6) Total protein in tissues was determined with the BioRad Protein Assay (BioRad) using a standard curve of BSA (50-250 μg/ml).
(§7) Reaction mix (total volume of 200 μl) contained: […] (2 μM AEA+5 nM ^3H-AEA), 0.1% fatty acid free BSA, 15 μg (brain), 5 μg (liver) or 50 μg (lung) protein, in 1 mM EDTA, 10 mM Tris pH 7.6. After a […] pre-incubation period at 37° C., reaction was started by the addition of the substrate solution (cold AEA+radiolabelled AEA+BSA). Reaction was carried out for 10 min (brain and lung) or […] (liver) before termination by the addition of 400 μl activated charcoal suspension (8 g charcoal in 32 ml 0.5 M HCl in continuous agitation). After a […] incubation period at room temperature with agitation, charcoal was sedimented by centrifugation in microfuge (10 min at 13000 rpm). 200 μl of the supernatant were added to 800 μl Optiphase Supermix scintillation cocktail previously distributed in 24-well plates. Counts per minute (cpm) were determined in a MicrobetaTriLux scintillation counter.
(§8) In each assay blanks (without protein) were prepared.
(§9) The percentage of remaining enzymatic activity was calculated in respect to controls and after blank subtraction.

[2] = target: T1, FAAH; experiment: In vivo FAAH inhibition after oral dosing, remaining activity in liver homogenate (LVh, peripheral tissue); design: species or system NMRI mice; conditions: liver homogenate, low value = strong inhibitor; for In Vivo LVh 3 mg · kg · 8 h (remaining FAAH activity): 3 mg/kg oral; for In Vivo LVh 3 mg·kg 8 h (remaining FAAH activity, % of control): 8 h after dosing
Method: as §1, §2, §3, §4, §5, §6, §7, §8, §9

SMILES | In Vivo BRh 3 mg · kg · 8 h (remaining FAAH activity) [1] | In Vivo LVh 3 mg · kg · 8 h (remaining FAAH activity) [2] | In Vivo BRh 3 mg·kg 8 h (remaining FAAH activity, % of control) [1] | In Vivo LVh 3 mg·kg 8 h (remaining FAAH activity, % of control) [2]
CN(C(=O)n1cnc(-c2cccc(-c3cccc(C(N)=O)c3)c2)c1)C1CCN(Cc2ccccc2)CC1 [Compound 550, N-(1-benzylpiperidin-4-yl)-4-(3′-carbamoylbiphenyl-3-yl)-N-methyl-1H-imidazole-1-carboxamide] | 94.3 % of control | 5.7 % of control | – | –
CN(C(=O)n1cnc(-c2ccc(-c3noc(=O)[nH]3)cc2)c1)C1CCCCC1 [Compound 551, N-cyclohexyl-N-methyl-4-(4-(5-oxo-4,5-dihydro-1,2,4-oxadiazol-3-yl)phenyl)-1H-imidazole-1-carboxamide] | 85.2 % of control | 3.8 % of control | – | –
CCCN1CCC(N(C)C(=O)n2cnc(-c3cccc(C(=O)NO)c3)c2)CC1 [Compound 552, 4-(3-(hydroxycarbamoyl)phenyl)-N-methyl-N-(1-propylpiperidin-4-yl)-1H-imidazole-1-carboxamide] | 90.2 % of control | 45 % of control | – | –
CN(C(=O)n1cnc(-c2cccc(NC(=N)N)c2)c1)C1CCCCC1.Cl [Compound 553, N-cyclohexyl-4-(3-guanidinophenyl)-N-methyl-1H-imidazole-1-carboxamide hydrochloride] | 72.3 % of control | 15.4 % of control | – | –
CCCN1CCC(N(C)C(=O)n2cnc(-c3ccc(O)c(C(N)=O)c3)c2)CC1 [Compound 554, 4-(3-carbamoyl-4-hydroxyphenyl)-N-methyl-N-(1-propylpiperidin-4-yl)-1H-imidazole-1-carboxamide] | 102.2 % of control | 85.6 % of control | – | –
CN(C(=O)n1cnc(-c2cccnc2)c1)C1CCN(CC(=O)O)CC1 [Compound 558, 2-(4-(N-methyl-4-(pyridin-3-yl)-1H-imidazole-1-carboxamido)piperidin-1-yl)acetic acid] | 83.1 % of control | 91.1 % of control | – | –
Br.CCN1CCC(N(C)C(=O)n2cnc(-c3ccc(F)c(O)c3)c2)CC1 [Compound 561, N-(1-ethylpiperidin-4-yl)-4-(4-fluoro-3-hydroxyphenyl)-N-methyl-1H-imidazole-1-carboxamide hydrobromide] | 82.2 % of control | 78.6 % of control | – | –
CN(C(=O)n1cnc(-c2cccc(C(=O)NO)c2)c1)[C@H]1CC[C@H](O)CC1 [Compound 566, 4-(3-(hydroxycarbamoyl)phenyl)-N-((1r,4r)-4-hydroxycyclohexyl)-N-methyl-1H-imidazole-1-carboxamide] | 88.5 % of control | 69.8 % of control | – | –
COc1ccc(-c2cn(C(=O)N3COCC3(C)C)cn2)cc1N [Compound no. 356, (4-(3-amino-4-methoxyphenyl)-1H-imidazol-1-yl)(4,4-dimethyloxazolidin-3-yl)methanone] | – | – | 6.5 % of control | 9.4 % of control
CC1(C)COCN1C(=O)n1cnc(-c2ccc(O)c(N)c2)c1.Cl [Compound no. 358, (4-(3-amino-4-hydroxyphenyl)-1H-imidazol-1-yl)(4,4-dimethyloxazolidin-3-yl)methanone hydrochloride] | – | – | 117.1 % of control | 81.2 % of control
CC1(C)COCN1C(=O)n1nnc2cccnc21 [Compound no. 368, (3H-[1,2,3]triazolo[4,5-b]pyridin-3-yl)(4,4-dimethyloxazolidin-3-yl)methanone] | – | – | 4.9 % of control | 9.6 % of control
CN(C(=O)n1cnc(-c2ccc(S(N)(=O)=O)cc2)c1)C1CCCCC1 [Compound no. 376, N-cyclohexyl-N-methyl-4-(4-sulfamoylphenyl)-1H-imidazole-1-carboxamide] | – | – | 95.3 % of control | 5.7 % of control
CN(C(=O)n1cnc(-c2ccc(-c3nn[nH]n3)cc2)c1)C1CCCCC1 [Compound no. 380, 4-(4-(2H-tetrazol-5-yl)phenyl)-N-cyclohexyl-N-methyl-1H-imidazole-1-carboxamide] | – | – | 77.3 % of control | 51.3 % of control
CN(C(=O)n1cnc(-c2ccc(/C(N)=N/O)cc2)c1)C1CCCCC1 [Compound no. 406, (Z)—N-cyclohexyl-4-(4-(N′-hydroxycarbamimidoyl)phenyl)-N-methyl-1H-imidazole-1-carboxamide] | – | – | 66.8 % of control | 16.3 % of control
CN(C(=O)n1cnc(-c2ccc(S(=O)(=O)N3CCC(OCc4ccccc4)CC3)cc2)c1)C1CCCCC1 [Compound no. 415, 4-(4-(4-(benzyloxy)piperidin-1-ylsulfonyl)phenyl)-N-cyclohexyl-N-methyl-1H-imidazole-1-carboxamide] | – | – | 109.1 % of control | 95.4 % of control
COc1ccc(-c2cn(C(=O)N(C)C3CCN(Cc4ccccc4)CC3)cn2)cc1 [Compound no. 419, N-(1-benzylpiperidin-4-yl)-4-(4-methoxyphenyl)-N-methyl-1H-imidazole-1-carboxamide] | – | – | 0.8 % of control | 1 % of control
CN(C(=O)n1cnc(-c2ccc(S(C)(=O)=O)cc2)c1)C1CCCCC1 [Compound no. 422, N-cyclohexyl-N-methyl-4-(4-(methylsulfonyl)phenyl)-1H-imidazole-1-carboxamide] | – | – | 1.7 % of control | 2.7 % of control
CN(C(=O)n1cnc(-c2cccc(C(=O)NO)c2)c1)C1CCN(Cc2ccccc2)CC1 [Compound no. 423, N-(1-benzylpiperidin-4-yl)-4-(3-(hydroxycarbamoyl)phenyl)-N-methyl-1H-imidazole-1-carboxamide] | – | – | 90 % of control | 2.1 % of control
CN(C(=O)n1cnc(-c2cccc(C(=O)NO)c2)c1)C1CCCCC1 [Compound no. 424, N-cyclohexyl-4-(3-(hydroxycarbamoyl)phenyl)-N-methyl-1H-imidazole-1-carboxamide] | – | – | 1 % of control | 0.5 % of control
CN(C(=O)n1cnc(-c2ccc(NCc3ccccc3)c([N+](=O)[O-])c2)c1)C1CCCCC1 [Compound no. 425, 4-(4-(benzylamino)-3-nitrophenyl)-N-cyclohexyl-N-methyl-1H-imidazole-1-carboxamide] | – | – | 111.4 % of control | 104.6 % of control
